The record followed here is ChEMBL document CHEMBL1201862, “PubChem BioAssay data set” (2004).

Some test systems named below: A498; A549; ACHN; HCC 2998; HCT-116; HCT-15; HOP-62; HOP-92; K562; KM12; MOLT-4; NCI-H460; NCI-H522; OVCAR-4; OVCAR-8; RPMI-8226; RXF 393; SK-MEL-28; SK-MEL-2; U-251.
What all share (assay): inhibition of tumour cell growth, NCI panel, 48 h

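Cells were grown in 96-well plates and exposed to each compound for 48 hours at five concentrations; endpoints were interpolated linearly between bracketing concentrations, or set to the highest concentration if not reached. GI50 = concentration required for 50% inhibition of growth.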 The source made the active and inactive calls. Cut-off read from the data, not from the text of the source: active = GI50 up to about 1.1 µM and inactive = higher.

In the case of `O=C(O)CCC(NC(=O)c1ccccc1)C(=O)O` (stereo not given), the GI50 with A498 was > 100 µM (inactive); in the assay on A549 it was > 100 µM (inactive); in the assay with ACHN, > 100 µM (inactive); in the assay on HCC 2998 it was > 100 µM (inactive); in the assay with HCT-116, 58.7 µM (inactive); in the assay on HCT-15, more than 100 µM. Besides, the GI50 in the assay on HOP-62, in the assay with HOP-92, with K562, in the assay with KM12, with MOLT-4 and in the assay on NCI-H460 was > 100 µM (inactive) in each case. Also, the GI50 in the assay on NCI-H522, in the assay on OVCAR-4, in the assay on OVCAR-8, in the assay on RPMI-8226, in the assay on RXF 393 and in the assay with SK-MEL-28 was > 100 µM (inactive) in each case. Besides, the GI50 in the assay with SK-MEL-2 and with U-251 was > 100 µM (inactive) each time.
With `CC(C)(C)c1cc(C(=O)/C=C/c2cc[nH]n2)cc(C(C)(C)C)c1O`, the GI50 in the assay on A498 is 2.17 µM (inactive); in the assay with A549, 3.02 µM (inactive); in the assay with ACHN, 1.62 µM (inactive); in the assay on HCC 2998, 1.88 µM (inactive); with HCT-116 it was 2.43 µM (inactive); with HCT-15 it was 2.11 µM. In addition, the GI50 was 2.86 µM (inactive) in the assay on HOP-62; 2.21 µM (inactive) in the assay with HOP-92; 3.08 µM (inactive) with K562; 2.29 µM (inactive) in the assay with KM12; 2.61 µM (inactive) in the assay on MOLT-4; 3.72 µM (inactive) in the assay with NCI-H460. For the same compound, the GI50 in the assay on NCI-H522 is 1.43 µM (inactive); with OVCAR-4, 6.4 µM (inactive); in the assay with OVCAR-8, 2.39 µM (inactive); with RPMI-8226, 1.06 µM (active); in the assay on RXF 393, 1.69 µM (inactive); in the assay with SK-MEL-28, 6.11 µM (inactive). The GI50 was 1.78 µM (inactive) in the assay on SK-MEL-2 and 1.73 µM (inactive) in the assay with U-251.
As for `COc1ccccc1/C=C1\CCC(CNc2ccc(Cl)cc2)C1=O` (stereo not given), the GI50 in the assay on A498 is 13.8 µM (inactive); in the assay with A549, 5.16 µM (inactive); with ACHN, 0.59 µM (active); in the assay with HCC 2998 it was 6.35 µM (inactive); in the assay with HCT-116, 4.38 µM (inactive); in the assay with HCT-15 it was 1.41 µM. Besides, the GI50 with HOP-62 was 7.76 µM (inactive); in the assay with HOP-92 it was 16.4 µM (inactive); in the assay with K562, 0.215 µM (active); in the assay with KM12, 1.1 µM (active); in the assay with MOLT-4, 2.86 µM (inactive); in the assay with NCI-H460 it was 1.43 µM (inactive). For the same compound, the GI50 is 1.57 µM (inactive) in the assay with NCI-H522; 14.7 µM (inactive) in the assay on OVCAR-4; 3.46 µM (inactive) with OVCAR-8; 1.34 µM (inactive) with RPMI-8226; 16.3 µM (inactive) in the assay on RXF 393; 13.2 µM (inactive) in the assay on SK-MEL-28. The GI50 in the assay on SK-MEL-2 is 13.2 µM (inactive); with U-251 it was 9.75 µM (inactive).
For `O=C1c2ccccc2C(=O)N1CCn1ccc(NC(c2ccccc2)(c2ccccc2)c2ccccc2)nc1=O`, the GI50 was 18.2 µM (inactive) with A498; 28.2 µM (inactive) in the assay with A549; 22.5 µM (inactive) with ACHN; 21.4 µM (inactive) with HCC 2998; 17.5 µM (inactive) in the assay on HCT-116; 22.5 µM in the assay with HCT-15. Besides, the GI50 in the assay on HOP-62 is 17.5 µM (inactive); with HOP-92, 18.5 µM (inactive); in the assay on K562, 20.3 µM (inactive); with KM12, 20.8 µM (inactive); with MOLT-4 it was 17.5 µM (inactive); in the assay with NCI-H460, 23.6 µM (inactive). In addition, the GI50 in the assay with NCI-H522 is 20.2 µM (inactive); in the assay with OVCAR-4, 25.5 µM (inactive); with OVCAR-8, 36.7 µM (inactive); in the assay with RPMI-8226, 19.8 µM (inactive); in the assay on RXF 393, 18.8 µM (inactive); in the assay with SK-MEL-28, 18.2 µM (inactive). Also, the GI50 in the assay on SK-MEL-2 is 20.5 µM (inactive); with U-251, 16.4 µM (inactive).
Regarding `O=C(O)COc1c(Cl)cc(Cl)c(C(c2c(Cl)cc(Cl)c(OCC(=O)O)c2Cl)C(Cl)(Cl)Cl)c1Cl`, the GI50 was 35.7 µM (inactive) in the assay on A498; 30.1 µM (inactive) in the assay on A549; 33.7 µM (inactive) in the assay on ACHN; 12.1 µM (inactive) in the assay on HCC 2998; 28.2 µM (inactive) in the assay on HCT-116; 26.4 µM in the assay on HCT-15. Besides, the GI50 with HOP-62 was 0.398 µM (active); with HOP-92 it was 25.2 µM (inactive); with K562, 33.3 µM (inactive); in the assay with KM12, 40.1 µM (inactive); in the assay on MOLT-4, 35.3 µM (inactive); with NCI-H460, 31.6 µM (inactive). The GI50 in the assay with NCI-H522 is 33.8 µM (inactive); with OVCAR-4 it was 30.8 µM (inactive); in the assay on OVCAR-8, 43.8 µM (inactive); in the assay on RPMI-8226, 28.3 µM (inactive); with RXF 393, 30.9 µM (inactive); with SK-MEL-28 it was 40.2 µM (inactive). The GI50 with SK-MEL-2 is 19.8 µM (inactive); in the assay on U-251 it was 26.7 µM (inactive).
Regarding `O=c1cc(/N=N/c2ccc(O)cc2)[nH]c(=O)[nH]1`, the GI50 with A498 is > 100 µM (inactive); with A549, > 100 µM (inactive); with ACHN it was > 100 µM (inactive); in the assay with HCC 2998, 29.7 µM (inactive); with HCT-116, > 100 µM (inactive); in the assay with HCT-15, more than 100 µM. Also, the GI50 in the assay on HOP-62 was 62.8 µM (inactive); in the assay on HOP-92 it was 96.6 µM (inactive); in the assay on K562 it was > 100 µM (inactive); in the assay on KM12, 16.9 µM (inactive); in the assay with MOLT-4 it was > 100 µM (inactive); in the assay with NCI-H460 it was > 100 µM (inactive). The GI50 in the assay on NCI-H522 was 31.7 µM (inactive); in the assay on OVCAR-4, > 100 µM (inactive); with OVCAR-8 it was > 100 µM (inactive); in the assay with RPMI-8226, > 100 µM (inactive); in the assay with RXF 393 it was 42.1 µM (inactive); in the assay with SK-MEL-28, > 100 µM (inactive). Also, the GI50 is > 100 µM (inactive) in the assay on SK-MEL-2 and 60.8 µM (inactive) in the assay on U-251.
Consider `CCOC(=O)C(=O)/C(=C/N1C(=O)CC(=O)NC1=S)C(=O)OCC`, for which the GI50 with A498 is 83.6 µM (inactive); in the assay on A549, > 100 µM (inactive); with ACHN, > 100 µM (inactive); in the assay with HCC 2998, > 100 µM (inactive); in the assay on HCT-116, > 100 µM (inactive); in the assay on HCT-15, more than 100 µM. Besides, the GI50 in the assay with HOP-62 is > 100 µM (inactive); in the assay with HOP-92, 9.29 µM (inactive); in the assay on K562 it was > 100 µM (inactive); in the assay with KM12 it was > 100 µM (inactive); in the assay with MOLT-4 it was > 100 µM (inactive); with NCI-H460 it was > 100 µM (inactive). Moreover, the GI50 in the assay with NCI-H522, with OVCAR-4, in the assay on OVCAR-8, in the assay with RPMI-8226, in the assay on RXF 393 and in the assay with SK-MEL-28 was > 100 µM (inactive) throughout. Besides, the GI50 with SK-MEL-2 and with U-251 was > 100 µM (inactive) in each case.
As to `OCCOc1ccc(-c2cc(-c3ccccn3)nc(-c3ccccn3)c2)cc1`, the GI50 in the assay with A498 was 3.3 µM (inactive); in the assay with A549 it was 0.172 µM (active); with ACHN, 0.0661 µM (active); in the assay on HCC 2998, 0.0578 µM (active); with HCT-116 it was 0.115 µM (active); in the assay with HCT-15, 0.0574 µM. Besides, the GI50 with HOP-62 is 0.106 µM (active); with HOP-92, 0.499 µM (active); with K562, 0.107 µM (active); in the assay with KM12, 0.296 µM (active); in the assay on MOLT-4, 0.0767 µM (active); in the assay on NCI-H460, 0.0849 µM (active). Besides, the GI50 with NCI-H522 is 0.661 µM (active); in the assay on OVCAR-4 it was 0.0731 µM (active); with OVCAR-8, 0.07 µM (active); in the assay with RPMI-8226, 0.242 µM (active); with RXF 393, 0.337 µM (active); with SK-MEL-28, 0.249 µM (active). Moreover, the GI50 was 0.115 µM (active) in the assay with SK-MEL-2 and 0.148 µM (active) in the assay on U-251.
As to `CC(C)NCCCNc1c2ccccc2nc2cccc([N+](=O)[O-])c12`, the GI50 with A498 is 0.0164 µM (active); with A549, 0.00358 µM (active); in the assay with ACHN it was 0.0136 µM (active); with HCC 2998, 0.00406 µM (active); in the assay on HCT-116, 0.0262 µM (active); in the assay with HCT-15 it was 0.0504 µM. The GI50 is 0.0279 µM (active) in the assay with HOP-62; 0.00389 µM (active) in the assay on HOP-92; 0.00262 µM (active) in the assay on K562; 0.0169 µM (active) with KM12; 0.00211 µM (active) with MOLT-4; 0.00227 µM (active) in the assay on NCI-H460. Moreover, the GI50 was 0.00161 µM (active) in the assay with NCI-H522; 0.00438 µM (active) in the assay with OVCAR-4; 0.00566 µM (active) in the assay on OVCAR-8; 0.00219 µM (active) in the assay on RPMI-8226; 0.00427 µM (active) in the assay with RXF 393; 0.144 µM (active) in the assay on SK-MEL-28. In addition, the GI50 is 0.0157 µM (active) in the assay on SK-MEL-2 and 0.0143 µM (active) in the assay with U-251.
Take `O=S(=O)(O)CCCc1cccc2ccccc12`: the GI50 was > 100 µM (inactive) in the assay on A498; > 100 µM (inactive) in the assay with A549; > 100 µM (inactive) in the assay on ACHN; > 100 µM (inactive) in the assay on HCC 2998; > 100 µM (inactive) in the assay with HCT-116; more than 100 µM in the assay with HCT-15. Besides, the GI50 in the assay on HOP-62, in the assay with HOP-92, in the assay with K562, with KM12, in the assay on MOLT-4 and with NCI-H460 was > 100 µM (inactive) each time. The GI50 with NCI-H522, with OVCAR-4, in the assay with OVCAR-8, in the assay with RPMI-8226, in the assay on RXF 393 and with SK-MEL-28 was > 100 µM (inactive) in each case. Also, the GI50 in the assay with SK-MEL-2 and in the assay with U-251 was > 100 µM (inactive) throughout.
